# Experimental data reported in patent publication US11066681B2, “Production of itaconic acid” (LESAFFRE ET COMPAGNIE, priority 2016, dated 2021).
# “Also recorded” adds a separate entry of the source.
# Columns and labels:
# [1] = tested on: A. niger AB1.13 CAD 4.1 (CBS 141653) strain; test: Itaconic acid toxicity: shakeflask growth in M12+Cu with added IA, biomass dry weight; assay type: cell-based, Aspergillus niger
# Experimental: FIG. 4: Growth of AB1.13 CAD 4.1 (CBS 141653) strain in M12+Cu supplemented with several concentrations of itaconic acid. Medium devoid of C-source is used as negative control. An extracellular concentration of 10 g/l IA in the production medium results in an 75% decrease in biomass development.
# Shakeflasks (500 mL) were prepared with 100 mL M12+Cu supplemented with the following IA concentrations: 0, 10, 20, 40, 75 g/l and pH was adjusted to 2.3 by addition of KOH/H2SO4. The flasks were inoculated with 1 mL of overnight grown pre-culture. After 7 days the mycelium was harvested and the biomass was determined by measuring the dry weight. The effect of IA on the growth of A. niger was tested using the AB1.13 CAD 4.1 (CBS 141653) strain. As shown in FIG. 4 the growth of A. niger is already hampered at concentrations of 10 g/l IA in the extracellular medium.
# [2] = tested on: trans-aconitate 2-methyltransferase (An16g06510); test: Gene expression analysis (RNA-Seq) in A. niger IA producing strains; assay type: cell-based, Aspergillus niger; conditions: IA producing A. niger strains in controlled fermentation
# Experimental: Similarly, genome wide gene expression analysis of Aspergillus niger strains expressing a functional itaconic acid pathway grown in fermenters was carried out to identify genes co-regulated by the expression of the itaconic acid gene cluster. The following strains were investigated: AB1.13 WT, AB1.13 CAD 4.1 (CBS141653), AB1.13 #49B (CBS141657), CitB #99 (CBS141659), and CitB #113.
# Controlled batch-cultivations were performed on 5 L scale benchtop New Brunswick Scientific fermenters (BioFlo 3000) at 33° C. Starting pH was 3.5 after inoculation and medium was allowed to naturally acidify till pH 2.3 and then kept at pH 2.3 by addition of 4M KOH. […]
# BaseClear in Leiden, NL performed digital gene expression profiling experiments based on RNA-Seq with an Illumina HiSeq 2000 System. Approximately 8-32 M unfiltered paired-end (PE) reads (99 bp/read on ˜320 bp cDNA inserts) were obtained. […] The reads were then further filtered, such that all quality phred scores after filtering are at least 22, with a read-length of at least 40 bases. […] After filtering the #PE-reads/samples were between 7.6M and 19.8M for all the samples respectively.
# Reads were aligned to the 20 contigs in a FastA file of the Aspergillus niger reference genome (from www.ebi.ac.uk). […] The reads were aligned to the reference genome using software based on a Burrows-Wheeler Transform (BWT) algorithm. […]
# [3] = tested on: Itaconyl CoA transferase ATEG_06299; conditions: 40 g/l IA addition to culture medium; cited from earlier work
# [4] = tested on: Itaconyl CoA hydratase ATEG_03709; conditions: 40 g/l IA addition to culture medium; cited from earlier work
# [5] = tested on: Citramalyl-CoA lyase ATEG_03186; conditions: 40 g/l IA addition to culture medium; cited from earlier work
# [6] = tested on: Trans-aconitate 3-methyltransferase (tmt-1) ATEG_06208; conditions: 40 g/l IA addition to culture medium; cited from earlier work
# [7] = tested on: Trans-aconitate 2-methyltransferase ATEG_04223; conditions: 40 g/l IA addition to culture medium; cited from earlier work
smiles,measurement,setting,value
"C=C(CC(=O)O)C(=O)O [IA, itaconic acid]",growth of A. niger,"[1]; 10 g/l IA in the extracellular medium, M12+Cu, 7 days",hampered
same,growth at higher IA concentrations,"[1]; 20 g/l IA and higher (20, 40 and 75 g/l), M12+Cu, 7 days, 33° C.",detrimental effects of IA on growth become more evident; also recorded: further deteriorated growth
same,decrease in biomass development,"[1]; extracellular 10 g/l IA in production medium M12+Cu, pH 2.3, 7 days, 33° C.",75%
same,"gene expression, effect of itaconic acid",[2],induced
same,Induced,[3],induced
same,induced expression level (RKPM),[3],130 RKPM
same,x-fold,[3],8.2 x-fold
same,Induced,[4],induced
same,induced expression level (RKPM),[4],320 RKPM
same,x-fold,[4],2.3 x-fold
same,Induced,[5],induced
same,induced expression level (RKPM),[5],150 RKPM
same,x-fold,[5],5.4 x-fold
same,Induced,[6],not induced
same,induced expression level (RKPM),[6],<(4) RKPM
same,Induced,[7],not induced
same,induced expression level (RKPM),[7],<(25) RKPM
